Values quoted from earlier work in patent US10335452B2, “Method of treating patients with hepatorenal syndrome type 1” (Mallinckrodt Hospital Products IP Limited, priority 2014, dated 2019).
Positions of bridges follow the written chain, without caps; N, C: chain ends. Residues, ends and D or L forms follow the SMILES beside them.

Legend:
[1] = in vivo
HRS-1 patients = conditions: each listed reaction occurred in more than this share of patients

SMILES	duration of action [1] [h]	Adverse reaction, share of patients (vomiting, abdominal pain, nausea, diarrhea, intestinal ischemia, dyspnea, sneezing, pulmonary edema and fluid overload) (HRS-1 patients)
NCCCC[C@H](NC(=O)[C@@H]1CCCN1C(=O)[C@@H]1CSSC[C@H](NC(=O)CNC(=O)CNC(=O)CN)C(=O)N[C@@H](Cc2ccc(O)cc2)C(=O)N[C@@H](Cc2ccccc2)C(=O)N[C@@H](CCC(N)=O)C(=O)N[C@@H](CC(N)=O)C(=O)N1)C(=O)NCC(N)=O [terlipressin, N—[N—(N-glycylglycyl)glycyl]-8-L-lysinevasopressin] (H-GGGCYFQNCPKG-NH2; disulfide 4-9 (inferred))	2 to 10	more than 10%
NC(=O)CC[C@@H]1NC(=O)[C@H](Cc2ccccc2)NC(=O)[C@H](Cc2ccc(O)cc2)NC(=O)[C@@H](N)CSSC[C@@H](C(=O)N2CCC[C@H]2C(=O)N[C@@H](CCCN=C(N)N)C(=O)NCC(N)=O)NC(=O)[C@H](CC(N)=O)NC1=O [vasopressin]	0.5 to 1	–
